Experiment [1] concerns cervical cancer cell line Hela. As to the kind of experiment: Anticancer activity, SRB growth assay in cervical cancer cell line Hela (3 days). It is filed as cell-based. As to conditions: Homo sapiens, 72 h, 2,500 cells/well, 570 nm, 0.008-1 μg/ml tested. Here is the method:
(§1) These assays are commonly used by those skilled in the art and are accepted as indicative of anticancer activity in mammals. The anticancer activities of dithiolopyrrolones have been determined in cell cultures of human colon cancer cell line HT-29, breast cancer cell line MCF-7 and cervical cancer cell line Hela. The procedure was carried out using the method described by Skehan et al. (1990). Briefly, cancer cells were grown in RPMI-1640 medium with glutamine and 10% fetal calf serum, and were harvested from exponential-phase maintenance cultures. The harvested cells were counted and dispensed into replicate 96-well culture plates in 180 μl volumes for each well with a cell density of 2,500 cells/well. The cells were allowed to settle for about 4 hours at 37° C. Then 20 μl of medium containing the test dithiolopyrrolone was added into each well, resulting in a final test compound concentration between 0.008-1 μg/ml. The test plates were then incubated at 37° C. The test was terminated 3 days after incubation by adding to each well 50 μl of cold 50% trichloroacetic acid. The cells were fixed for an hour at 4° C. and then washed five times with tap water. The washed plates were air-dried and stained for 30 minutes with 0.4% (wt/vol) sulforhodamine B (SRB) which was dissolved in 1% acetic acid. At the end of the staining period, the SRB was removed and plates were quickly rinsed, five times with 1 % acetic acid. After being rinsed, the plates were air-dried and 100 μl of 10 mM tris base (pH 10.5) were added to each well to solubilize the dye bound to the cells. The plates were placed on a gyratory shaker and shaken (100 rpm) for 10 minutes. Finally, the plates were read in a microtiter plate reader at 570 nm.

The next experiment concerns mammary cells. As to conditions: mammary cells exposed to carcinogens; Menta and Moon, 1991; Arnold et al., 1995; cited from earlier work.
In experiment [2] the test system is human colon cancer cell line HT-29. As to the kind of experiment: Anticancer activity, SRB growth assay in human colon cancer cell line HT-29 (3 days). As to conditions: HT-29, 72 h, HT29, 2,500 cells/well, 570 nm, 0.008-1 μg/ml tested. It is filed as cell-based. Here is the method: as §1, with “At the end of the staining period, the SRB was removed and plates were quickly rinsed, five times with 1 % acetic acid. After being rinsed, the plates were air-dried and 100 μl of 10 mM tris base (pH 10.5) were added to each well to solubilize the dye bound to the cells. The plates were placed on a gyratory shaker and shaken (100 rpm) for 10 minutes.” left out

The test system of a further experiment is membrane. As to conditions: Ninomiya et al., 1980; cited from earlier work.
The subject of another experiment is glutathione. As to conditions: Sharma et al., 1994; cited from earlier work.
The test system of a further experiment is RNA polymerase. As to conditions: Jimenez et al., 1973, Tipper; cited from earlier work.
Experiment [3] relates to ornithin decarboxylase (ODC). As to conditions: Sharma et al., 1994; cited from earlier work.
The next experiment has as its system platelet aggregation. As to conditions: in vitro; Ninomiya et al., 1980; cited from earlier work.
Experiment [4] relates to breast cancer cell line MCF-7. The experiment can be described thus: Anticancer activity, SRB growth assay in breast cancer cell line MCF-7 (3 days). It counts as cell-based. As to conditions: Homo sapiens, MCF7, 72 h, 2,500 cells/well, 570 nm, 0.008-1 μg/ml tested. Here is the method: as §1, with “At the end of the staining period, the SRB was removed and plates were quickly rinsed, five times with 1 % acetic acid. After being rinsed, the plates were air-dried and 100 μl of 10 mM tris base (pH 10.5) were added to each well to solubilize the dye bound to the cells. The plates were placed on a gyratory shaker and shaken (100 rpm) for 10 minutes.” left out

The structures appear in SMILES notation. Converted amounts (≈) assume the structure as drawn.

Molecule `CCCCCC(=O)Nc1c2sscc-2n(C)c1=O` [XN1, N-(4,5-dihydro-4-methyl-5-oxo-1,2-dithiolo[4,3-b]pyrrol-6-yl)hexanoamide] displayed an IC50 in experiment [1] of 0.13 µg/mL (≈ 0.457 µM).

`CC(C)CCCC(=O)Nc1c2sscc-2[nH]c1=O` [XN3, N-(4,5-dihydro-5-oxo-1,2-dithiolo[4,3-b]pyrrol-6-yl)5-methylhexanoamide]: inhibition in experiment [1] was half-maximal at 0.09 µg/mL (≈ 0.316 µM) (IC50).

As to `CC(=O)Nc1c2sscc-2n(C)c1=O` [XN0, N-(4,5-dihydro-4-methyl-5-oxo-1,2-dithiolo[4,3-b]pyrrol-6-yl)acetamide], the “inhibition of promotion of carcinogenesis-associated activities (in words)” value in the experiment on mammary cells was “inhibits the promotion of several other activities possibly associated with the occurrence of carcinogenesis in mammary cells”. Moreover, the IC50 in experiment [2] turned out to be 0.03 µg/mL (≈ 0.131 µM); in experiment [1], 0.07 µg/mL (≈ 0.307 µM); in [4] it was 0.08 µg/mL (≈ 0.35 µM). For the same molecule, the “membrane stabilization activity (in words)” value with membrane is given as “has membrane stabilization activity”. Also, the “reduction of glutathione (in words)” value with glutathione was “induces the reduction of glutathione”. For the same molecule, the “inhibition of RNA polymerase synthesis (in words)” value in the experiment on RNA polymerase was “inhibits RNA polymerase synthesis”. Moreover, the “inhibition of ODC (in words)” value in experiment [3] is recorded as “inhibits OCD”. Besides, the “inhibition of platelet aggregation (in words)” value in the experiment on platelet aggregation is “inhibits platelet aggregation in vitro”.

These data come from patent publication US6020360A, “Anticancer property of dithiolopyrrolones” (priority 1996, dated 2000).
